Two compounds from paper PMC7127579 (Febs Letters, 2006) can be followed below.

The Km is the concentration of substrate that gives half-maximal velocity.

Structures are written as SMILES.

The assay concerns the target T1, FhePrx (recombinant 2-Cys peroxiredoxin of Fasciola hepatica) (Fasciola hepatica, UniProt P91883).
T1 sequence (P91883 1-194): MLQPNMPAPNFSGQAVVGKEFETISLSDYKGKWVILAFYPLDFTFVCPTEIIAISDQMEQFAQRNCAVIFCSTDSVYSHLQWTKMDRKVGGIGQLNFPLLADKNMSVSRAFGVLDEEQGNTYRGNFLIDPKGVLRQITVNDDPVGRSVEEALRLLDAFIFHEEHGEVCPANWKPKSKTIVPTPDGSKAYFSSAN
Briefly: coupled NADPH oxidation assay. It counts as biochemical. As to conditions: E. coli thioredoxin and thioredoxin reductase, 0.25 mM NADPH, 1 mM EDTA, 5 mM potassium phosphate pH 7.0, 22 °C.

On to `CC(C)(OO)c1ccccc1` [Cumene hydroperoxide], for which the Michaelis-Menten constant (Km) was 12.7 µM.
For `CC(C)(C)OO` [t-Butyl hydroperoxide] the value was 18.6 µM.
